Assay results: PMC6522510 (Nature Communications, 2019)
Where two headings read alike, the source gives them in different places.

What was measured:
U937 = assay: Secondary dose-response HTS, Cell Titer Glo; format: cell-based, human; details: for EC50: Homo sapiens, U-937
CHRF288-11 = assay: Secondary dose-response HTS, Cell Titer Glo; format: cell-based, human; details: for EC50: Homo sapiens
MV4-11 [1] = assay: Secondary dose-response HTS, Cell Titer Glo; format: cell-based, human; details: secondary high-throughput screen, MV4-11; for EC50: Homo sapiens, read-out: average effective concentration, MV4-11
CMS = assay: Secondary dose-response HTS, Cell Titer Glo; format: cell-based, human; details: for EC50: Homo sapiens, HTS
ML2 = assay: Secondary dose-response HTS, Cell Titer Glo; format: cell-based, human; details: ML-2; for EC50: Homo sapiens
M07e = assay: Secondary dose-response HTS, Cell Titer Glo; format: cell-based, human; details: for EC50: Homo sapiens, M-07e
MOLM-13 = assay: Secondary dose-response HTS, Cell Titer Glo; format: cell-based, human; details: MOLM-13; for EC50: Homo sapiens
CMK = assay: Secondary dose-response HTS, Cell Titer Glo; format: cell-based, human; details: CMK; for EC50: Homo sapiens
MV4-11 [2] = assay: cells; design: species or system AML cell lines (8); Secondary HTS, 10-point dose-response in triplicate, Cell Titer Glo viability, four-parameter fit EC50; details: Homo sapiens, MV4-11, 72 h, read-out: MV4-11
[3] = secondary high-throughput screen, U937
[4] = secondary high-throughput screen, CHRF288-11
[5] = secondary high-throughput screen, CMS
[6] = secondary high-throughput screen
[7] = secondary high-throughput screen, M07e
[8] = secondary high-throughput screen, […]
[9] = secondary high-throughput screen, U937, read-out: average effective concentration, U937
[10] = HTS, secondary high-throughput screen, CHRF288-11, read-out: average effective concentration, CHRF288-11
[11] = secondary high-throughput screen, CMS, read-out: average effective concentration, CMS
[12] = secondary high-throughput screen, read-out: average effective concentration, ML-2
[13] = secondary high-throughput screen, M07e, read-out: average effective concentration, M07e
[14] = secondary high-throughput screen, read-out: average effective concentration, MOLM-13
[15] = read-out: average effective concentration, CMK
[16] = read-out: average effective concentration, CMS
[17] = secondary high-throughput screen, read-out: average effective concentration, CMK

EC50 (U937; [9]) [nM]	EC50 (MOLM-13; [14]) [nM]	Compound	average effective concentration, U937 (U937; [3])	average effective concentration, CHRF288-11 (CHRF288-11; [4])	average effective concentration, MV4-11 (MV4-11 [1])	average effective concentration, CMS (CMS; [5])	average effective concentration, ML-2 (ML2; [6])	average effective concentration, M07e (M07e; [7])	average effective concentration, MOLM-13 (MOLM-13; [6])	EC50 (CHRF288-11; [10]) [nM]	EC50 (ML2; [12]) [nM]	EC50 (M07e; [13]) [nM]	other results
		N[C@@H]1C[C@H]1c1ccccc1 (racemic) [TRANYLCYPROMINE]	Inactive	Inactive	Inactive	Inactive	Inactive	Inactive	Inactive				
		[NH4+].[NH4+].[SH-].[SH-].[S]=[Mo]=[S] [AMMONIUM TETRATHIOMOLYBDATE]	Inactive	Inactive	Inactive	Inactive	Inactive	Inactive	Inactive				
		O=[As]O[As]=O (stereo not shown) [ARSENIC TRIOXIDE]	Inactive	Inactive	Inactive	Inactive	Inactive		Inactive				average effective concentration, M07e (M07e; [8]): Inactive
		N[C@@H]1CCCN(c2c(/C=C3\SC(=O)NC3=O)cccc2-c2ccccc2)C1 [AZD1208]	Inactive		Inactive	Inactive	Inactive	Inactive	Inactive				average effective concentration, CMK (CMK; [6]): Inactive
1000	1300	C[C@H]1[C@H](OC(=O)CCC(=O)O)O[C@@H]2O[C@@]3(C)CC[C@H]4[C@H](C)CC[C@@H]1[C@@]24OO3 [Artesunate, reference compound]								8600	4600	1200	EC50 (CMS; [11]): 5900 nM
170	270	O=C(/C=C/c1cccc(S(=O)(=O)Nc2ccccc2)c1)NO [BELINOSTAT]								240	350	190	EC50 (CMK; [15]): 14 nM; EC50 (CMS; [16]): 250 nM; EC50 (MV4-11 [2]): > 10000 nM
2000	2500	COc1cc2nc(N3CCCN(C)CC3)nc(NC3CCN(Cc4ccccc4)CC3)c2cc1OC [BIX 01294]								4400	3600	> 10000	EC50 (MV4-11 [1]): 3000 nM; EC50 (CMS; [11]): > 10000 nM
140	5600	C#Cc1cccc(Nc2ncnc3cc(OC)c(OCCCCCCC(=O)NO)cc23)c1 [CUDC-101]								600	83	190	EC50 (CMK; [15]): 73 nM; EC50 (CMS; [16]): 780 nM; EC50 (MV4-11 [2]): > 10000 nM
	0.447	COc1ccc(-c2nc(N3CCOCC3)c3sc(CN(C)c4ncc(C(=O)NO)cn4)cc3n2)cn1 [CUDC-907, reference compound]								0.89	1.7	0.7	EC50 (U937; secondary HTS, 72 h, average of triplicate, read-out: EC50 U937): 4 nM; EC50 (CMK; 72 h, read-out: EC50 CMK): 2 nM; EC50 (CMK; [15]): 1.9 nM; EC50 (CHRF288-11; secondary HTS, 72 h, average of triplicate, read-out: EC50 CHRF288-11): 1 nM; EC50 (CMS; 72 h, read-out: EC50 CMS): 1 nM; EC50 (ML2; secondary HTS, 72 h, average of triplicate, read-out: EC50 ML2): 2 nM; EC50 (M07e; secondary HTS, 72 h, average of triplicate, read-out: EC50 M07e): 1 nM; EC50 (MOLM-13; secondary HTS, 72 h, average of triplicate, read-out: EC50 MOLM-13): 0.4 nM
7600	1200	N#CCNC(=O)c1ccc(-c2ccnc(Nc3ccc(N4CCOCC4)cc3)n2)cc1 [CYT-387]								3800	> 10000	270	EC50 (CMK; [15]): 1800 nM; EC50 (CMS; [16]): 340 nM; EC50 (MV4-11 [2]): > 10000 nM
1000	2200	Nc1ncnc2c1nc(Cl)n2[C@@H]1O[C@H](CO)[C@@H](O)[C@H]1O [Compound 8-CHLOROADENOSINE]								1200	2800	1	EC50 (MV4-11 [1]): 250 nM; EC50 (CMS; [16]): 4400 nM
		NC1CC1c1cc(F)cc(F)c1OCc1ccccc1 (stereo not shown) [Compound S2101]	Inactive	Inactive	Inactive	Inactive	Inactive	Inactive	Inactive				
		CSCC[C@@H](NC(=O)c1ccc(CNCc2cnc[nH]2)cc1-c1ccccc1C)C(=O)OCc1ccccc1 [FTI-2628]		Inactive	Inactive	Inactive	Inactive	Inactive	Inactive				average effective concentration, CMK (CMK; [6]): Inactive
		CSCC[C@H](NC(=O)c1ccc(NC(=O)[C@@H](N)CS)cc1)C(=O)O [H-CYS-4-ABZ-MET-OH]		Inactive	Inactive	Inactive	Inactive	Inactive	Inactive				average effective concentration, CMK (CMK; [6]): Inactive
		O=C(O)c1ccc(O)c2ncccc12 [IOX 1]	Inactive	Inactive	Inactive	Inactive	Inactive	Inactive	Inactive				
		CC(N[C@H]1C[C@@H]1c1ccccc1)c1ccc2c(c1)OCCO2 (stereo partly shown) [LSD1-C76]	Inactive	Inactive		Inactive	Inactive	Inactive	Inactive				average effective concentration, CMK (CMK; [6]): Inactive
5800	> 10000	Cc1c(-c2cnccn2)ssc1=S [OLTIPRAZ]								> 10000	3100	> 10000	EC50 (CMS; [11]): 10000 nM
280	310	C1=C/COCc2cc(ccc2OCCN2CCCC2)Nc2nccc(n2)-c2cccc(c2)COC/1 [PACRITINIB]								2400	130	6700	EC50 (CMK; [15]): 5000 nM; EC50 (CMS; [16]): 2000 nM; EC50 (MV4-11 [2]): > 10000 nM
3500	2000	CN(C)Cc1ccc(S(=O)(=O)n2ccc(/C=C/C(=O)NO)c2)cc1 [RESMINOSTAT]								4700	5000	1100	EC50 (CMK; [17]): 1700 nM; EC50 (CMS; [11]): 3100 nM; EC50 (MV4-11 [2]): > 10000 nM
		O=C(O)C(Cc1c[nH]c2ccccc12)N1C(=O)c2ccccc2C1=O (stereo not shown) [RG108]	Inactive	Inactive	Inactive	Inactive	Inactive	Inactive					average effective concentration, CMK (CMK; [6]): Inactive
		Fc1ccc(CNc2ncnc3ccc(F)cc23)cc1 [SPAUTIN-1]		Inactive	Inactive	Inactive	Inactive		Inactive				average effective concentration, CMK (CMK; [6]): Inactive; average effective concentration, M07e (M07e; [8]): Inactive
> 10000	2200	CC(=O)Nc1ccc(C(=O)Nc2ccccc2N)cc1 [TACEDINALINE]								> 10000	> 10000	4100	EC50 (CMK; [17]): 6800 nM; EC50 (CMS; [11]): 9000 nM; EC50 (MV4-11 [2]): > 10000 nM
		SCH 51344	Inactive	Inactive		Inactive	Inactive	Inactive	Inactive				average effective concentration, CMK (CMK; [6]): Inactive

Compound	EC50 (U937; [9]) [nM]	EC50 (MOLM-13; [14]) [nM]	average effective concentration, U937 (U937; [3])	average effective concentration, CHRF288-11 (CHRF288-11; [4])	average effective concentration, MV4-11 (MV4-11 [1])	average effective concentration, CMS (CMS; [5])	average effective concentration, ML-2 (ML2; [6])	average effective concentration, M07e (M07e; [7])	average effective concentration, MOLM-13 (MOLM-13; [6])	EC50 (CHRF288-11; [10]) [nM]	EC50 (ML2; [12]) [nM]	EC50 (M07e; [13]) [nM]	other results
Nc1cc(F)ccc1NC(=O)/C=C/c1cnn(C/C=C/c2ccccc2)c1 [RGFP966]	> 10000	> 10000								7300	> 10000		EC50 (CMK; [17]): 6000 nM; EC50 (CMS; [11]): 9300 nM; EC50 (M07e; secondary high-throughput screen, […], read-out: average effective concentration, M07e): 10000 nM; EC50 (MV4-11 [2]): > 10000 nM
